Drawing on article PMC4960700, “In vivo and in vitro inhibition of rat liver glutathione transferases activity by extracts from Combretum zeyheri (Combretaceae) and Parinari curatellifolia (Chrysobalanaceae)” (BMC Complementary and Alternative Medicine, 2016), this text covers IC50 for one compound.

Converted amounts (≈) assume the structure as drawn. “And” between values parts separate entries of the source, which are not always exact repeats. Equal entries are not always repeated.

For one test, the target named is rat liver GSTs. Description: In vitro GST enzyme assay (CDNB/GSH) with liver cytosolic fractions of control rats. It is filed as biochemical, male Sprague–Dawley rats. The settings on record: CDNB substrate. Here is the method: (§1) Throughout the procedure tissue fractions were kept cold (0–4 °C) by using pre-cooled homogenization medium (50 mM Tris–HCl containing 0.154 M KCl) and keeping centrifuge rotors, tissue homogenizer, measuring cylinders, beakers and centrifuge tubes in ice. Excess blood was removed from the liver by perfusing the livers with ice cold normal saline using a Pharmacia LKB pump P-1 (Pharmacia, Uppsala, Sweden) at a flow rate of 50 ml/h through the still beating heart then gently blotting with dry tissue paper. Perfusion was performed in situ to remove blood. The livers and kidneys were removed and blotted dry. The liver or kidney samples were, weighed, wet mass recorded and livers quickly transferred to a homogenizing vessel, which was kept, on ice. Homogenizing medium 50 mM Tris–HCl pH 7.4 containing 154 mM KCl was added to each sample (5 ml/g of liver). The liver or kidney samples were cut into suitable pieces and homogenized with a motor driven Potter-Elvehjem homogenizer type R2R (Heidolph Elektro KG., Kelheim, Germany). […] The final volume was recorded and “parafilm ^TM” (Sigma-Aldrich Co., Steinheim, Germany) was added to cover. […] Protein content in the liver and kidney cytosolic fractions was determined using the Lowry method. The total GST activity in cell supernatants was measured spectrophotometrically using final concentrations of 1 mM 1-chloro-2,4-dinitrobenzene (CDNB) and 1 mM glutathione, as substrates in 0.1 M potassium phosphate buffer pH 6.5, and GST (0.125 mg/ml protein). Cytosolic glutathione transferases activities were assessed using 0.5 mg/ml and 2 mg/ml enzyme dilutions for the liver and kidney samples respectively. […] GST mediated conjugation of 1-chloro-2, 4- dinitrobenzene (CDNB) to glutathione (GSH) was measured using 96-well microtitre plates in a microplate reader (Biokinetics reader EL 340 microplate, Highland Park, 998, Winsooki, VT, USA). […] After addition of CDNB, the plate was transferred to the microplate reader. The plate was read at 5-min intervals for a total of 15 min.

For another test, the target named is kidney GSTs. The test can be described thus: In vitro GST enzyme assay (CDNB/GSH) with kidney cytosolic fractions of control rats. It is filed as biochemical, male Sprague–Dawley rats. The settings on record: CDNB substrate. Here is the method: as §1

`C=C(CC)C(=O)c1ccc(OCC(=O)O)c(Cl)c1Cl` [ETA, ethacrynic acid]: the IC50 (in general, the midpoint of a concentration-inhibition curve) against rat liver GSTs (liver cytosol from corn oil-treated control group, P. curatellifolia experiments) is 10 µg/mL (≈ 33 µM); against rat liver GSTs (liver cytosol from normal saline treated control group, P. curatellifolia experiments) it was 5.8 µg/mL and 6 µg/mL; at rat liver GSTs (liver cytosol from saline-treated control group, C. zeyheri experiments) it was 5.4 µg/mL (≈ 17.8 µM); against kidney GSTs (kidney cytosol from corn oil-treated control group, P. curatellifolia experiments), 3.7 µg/mL (≈ 12.2 µM); against kidney GSTs (kidney cytosol from normal saline treated control group, P. curatellifolia experiments), 7.36 µg/mL and 7.4 µg/mL; at kidney GSTs (kidney cytosol from saline-treated control group, C. zeyheri experiments), 10 µg/mL (≈ 33 µM).
